Paper PMC6983002, “Identification and Biological Evaluation of CK2 Allosteric Fragments through Structure-Based Virtual Screening” (Molecules, 2020)
Where two headings read alike, the source gives them in different places.

What was measured:
A549 cancer cells = experiment: CCK-8 cell proliferation assay, A549; format: cell-based; details: Homo sapiens, A549, 48 h treatment, read-out: IC50, inhibition of A549 cell proliferation
Description: With the aim of investigating the anti-cancer cell proliferative activity of the CK2 inhibitors, compound 3 and 4 was tested against human cancer cell lines based on Cell Counting Kit-8 (CCK-8) assay. […] We presumed that the functional uracil group of two compounds, which is also presented in the anti-cancer hits 5-fluorouracil, is essential and indispensable for anti-cancer activity.
Cell Counting Kit-8 (CCK-8 Dojindo Laboratories, Kyushu, Japan) assays was used to assess the cytotoxic activities of compound 3 and 4. A549 and HeLa cancer cells were seeded in 96-well flat-bottom culture plate at 2 × 10^4 cells/well and then cultured in an incubator of 5% CO2 and 37 °C for 24 h. After cells adherence, the cells were treated with targeted compounds at various concentrations for 48 h. Blank wells (containing culture medium only) and negative wells (untreated cells) served as controls. Following, 10 μL CCK-8 solutions was add to each well and incubated for 2 h at 37 °C, the absorbance was measured at 450 nm by using a microplate reader (Enspire 2300-001A, Perkin Elmer, Waltham, MA, USA).

CK2α = CK2α (Homo sapiens, UniProt P68400); experiment: ADP-Glo kinase assay, CK2 inhibition; format: biochemical; details: for inhibition at 256 µM: 256 μM compound; for inhibition at 1024 µM: 1024 μM compound, read-out: inhibition rate at 1024 μM
Description: In vitro CK2 kinase inhibition assay were carried out for the six compounds using ADP-Glo^TM kinase assay. […] As indicated in Table 1 and Figure 5a, these compounds presented the inhibitory effect on CK2α activity to different extent. At the concentration of 16 μM, compound 3 inhibited nearly 50% of CK2α activity. However, at the same concentration, other compounds had only 20% inhibitory activity. Furthermore, except compound 2 and 6, the inhibition rates of these compounds were about 70% and 30% at 256 μM, respectively, with the dose-dependent manner. The ADP-Glo^TM Kinase Assay (Promega, Madison, WI, USA) was used to test the CK2 inhibition effects of these compounds [30, 31]. As indicated by the relevant studies, competitive and noncompetitive inhibitors show the increased and similar IC50 values with increasing concentrations of ATP, respectively. Therefore, we were able to distinguish between ATP competitive and noncompetitive inhibitors of CK2 by exploring whether the IC50 value of inhibitors will change or not at 10 and 100 μM ATP. The kinase reaction was performed in 25 μL mixture containing 10 ng casein kinase 2α, 0.1 µg/μL casein protein, 10 µM or 100 µM ATP, 1× reaction buffer and serially diluted fragments (or DMSO for control). After 60 min incubation at room temperature, 25 μL of ADP-Glo^TM Reagent was added to terminate the kinase reaction and deplete the remaining ATP. Then 50 μL Kinase Detection Reagent was added to convert ADP to ATP within 30 min, and allow the newly synthesized ATP to produce a luminescence signal using luciferase/luciferin reaction, which was recorded by the luminescence panel of Microplate Reader (Enspire2300-001A, Perkin Elmer, Waltham, MA, USA).The luminescent signal is proportional to the ADP concentration produced and correlated with the kinase activity.

[1] = concentration-response, 10 μM ATP where stated, read-out: IC50 against CK2α

CK2α, sequence (P68400 whole entry): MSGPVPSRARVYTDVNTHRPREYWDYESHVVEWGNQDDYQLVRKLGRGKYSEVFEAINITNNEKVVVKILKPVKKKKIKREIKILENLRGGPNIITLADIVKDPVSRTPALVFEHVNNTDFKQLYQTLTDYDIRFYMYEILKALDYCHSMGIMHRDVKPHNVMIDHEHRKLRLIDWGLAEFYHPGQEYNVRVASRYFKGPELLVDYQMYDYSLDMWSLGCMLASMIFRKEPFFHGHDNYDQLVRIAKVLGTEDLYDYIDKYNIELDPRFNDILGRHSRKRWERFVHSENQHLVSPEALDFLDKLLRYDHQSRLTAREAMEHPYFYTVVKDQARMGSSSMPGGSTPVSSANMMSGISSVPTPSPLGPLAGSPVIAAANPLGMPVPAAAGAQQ

| Compound | IC50 (A549 cancer cells) [µM] | inhibition at 16 µM (CK2α; 16 μM compound) [%] | %Inhibition at 16 μM (CK2α; 16 μM compound, 16 µM) [%] | inhibition at 64 µM (CK2α; 64 μM compound) [%] | IC50 (CK2α; 100 μM ATP, read-out: IC50 against CK2α in the presence of 100 μM ATP) [µM] | inhibition at 256 µM (CK2α) [%] | mode of inhibition with respect to ATP (CK2α; IC50 compared at 10 μM and 100 μM ATP) | IC50 (CK2α; [1]) [µM] | inhibition at 1024 µM (CK2α) [%] |
| --- | --- | --- | --- | --- | --- | --- | --- | --- | --- |
| Cc1ccc(C(=O)Nc2c[nH]c(=O)[nH]c2=O)cc1C [Compound 3] | 23.1 | ~50 | 52 | > 50 | 10.2 | 72 | non-ATP competitive | 13 | – |
| Nc1cc(=O)nc(SCc2ccccc2Cl)[nH]1 [Compound 6] | – | 12 | – | – | – | 18 | – | – | < 50 |
| Cc1c(Cl)cccc1NC(=O)CC1NCCNC1=O (stereo not shown) [Compound 5] | – | 16 | – | – | – | 29 | – | – | < 50 |
| COc1ccc(C(=O)Nc2ccc(C(N)=O)cc2)cc1Br [Compound 1] | – | 14 | – | – | – | 27 | – | – | – |
| O=C(Cc1cccc2ccccc12)Nc1c[nH]c(=O)[nH]c1=O [Compound 4] | 8.8 | 22 | – | – | – | 40 | – | ≤ 1020 | – |
| COc1ccc(C(=O)Nc2ccc3[nH]c(=O)[nH]c3c2)cc1Br [Compound 2] | – | 16 | – | – | – | 19 | – | – | – |
